Reference: article PMC9533837 (Antiviral Research, 2003)
Values after ≈ are worked out from the molar mass of the structure shown. “Also recorded” adds a separate entry of the source. Read-outs that look alike come from different tables or passages of the source.

Columns and labels:
[1] = system: orthopoxviruses (VAR-BSH, VAR-YAM, VAR-GAR, MPX, CPX, VAC); test: organism not typed; assay type: cell-based
VAC Copenhagen [2] = test: microbe, parasite or virus in culture; assay type: cell-based, vaccinia virus; settings: for IC50: Orthopoxvirus vaccinia, LLC-MK2, read-out: IC50 VAC LLC-MK2
[3] = system: VAR-BSH (1975 Bangladesh isolate of VAR major); test: organism not typed; assay type: cell-based, variola major; settings: for IC50: LLC-MK2, read-out: IC50 VAR-BSH LLC-MK2
CPX Brighton [4] = test: organism not typed; assay type: cell-based, cowpox; settings: for IC50: LLC-MK2, read-out: IC50 CPX LLC-MK2
CPX Brighton [5] = test: organism not typed; assay type: cell-based, cowpox; settings: for IC50: Vero, read-out: IC50 CPX Vero
[6] = system: MPX Zaire (V79-1-005-Scab); test: organism not typed; assay type: cell-based, monkeypox; settings: for IC50: LLC-MK2, read-out: IC50 MPX LLC-MK2
[7] = system: VAR-BSH (1975 Bangladesh isolate of VAR major); test: organism not typed; assay type: cell-based, variola major; settings: for IC50: Vero, read-out: IC50 VAR-BSH Vero
[8] = system: VAR-YAM (1946 Japan Yamada isolate of VAR major); test: organism not typed; assay type: cell-based, variola major; settings: for IC50: Vero, read-out: IC50 VAR-YAM Vero
VAC Copenhagen [9] = test: microbe, parasite or virus in culture; assay type: cell-based, vaccinia virus; settings: for IC50: Orthopoxvirus vaccinia, Vero, read-out: IC50 VAC Vero
[10] = system: VAR-YAM (1946 Japan Yamada isolate of VAR major); test: organism not typed; assay type: cell-based, variola major; settings: for IC50: LLC-MK2, read-out: IC50 VAR-YAM LLC-MK2
[11] = system: MPX Zaire (V79-1-005-Scab); test: organism not typed; assay type: cell-based, monkeypox; settings: for IC50: Vero, read-out: IC50 MPX Vero
[12] = system: VAR-GAR (1966 Brazil Garcia isolate of VAR minor); test: organism not typed; assay type: cell-based, variola minor; settings: for IC50: Vero, read-out: IC50 VAR-GAR Vero
[13] = system: VAR-GAR (1966 Brazil Garcia isolate of VAR minor); test: organism not typed; assay type: cell-based, variola minor; settings: for IC50: LLC-MK2, read-out: IC50 VAR-GAR LLC-MK2
VAC = settings: cited from earlier work

SMILES: O=c1[nH]c(=O)n([C@@H]2O[C@H](CO)[C@@H](O)[C@@H]2O)cc1/C=C/Br [brovavir, Brovavir]
- inhibitory activity against the orthopoxviruses tested (in words) [1]: No other test compounds of this group (acyclovir, brovavir, lobucavir, didanosine, ddC, or d4C) showed any activity; also recorded: failed to inhibit orthopoxvirus replication

SMILES: Nc1ccn([C@H]2C=C[C@@H](CO)O2)c(=O)n1 [d4C, 2′,3′-dideoxydidehydrocytidine]
- inhibitory activity against the orthopoxviruses tested (in words) [1]: No other test compounds of this group (acyclovir, brovavir, lobucavir, didanosine, ddC, or d4C) showed any activity

SMILES: Nc1ncnc2c1ncn2CCOCP(=O)(O)O [PMEA, 9-[2-(phosphonomethoxy)ethyl]adenine]
- inhibitory activity against the orthopoxviruses tested (in words) [1]: Neither PMEA nor bis-POM-PMEA was effective

SMILES: Nc1ccn([C@H]2CC[C@@H](CO)O2)c(=O)n1 [ddC, zalcitabine]
- inhibitory activity against the orthopoxviruses tested (in words) [1]: No other test compounds of this group (acyclovir, brovavir, lobucavir, didanosine, ddC, or d4C) showed any activity

SMILES: NC(=O)c1csc([C@@H]2O[C@H](CO)[C@@H](O)[C@H]2O)n1 [Tiazofurin, 2-β-D-ribofuranosylthiazole-4-carboxamide]
- Therapeutic index (TI) VAC LLC-MK2 (VAC Copenhagen [2]): 3.0
- IC50 (VAC Copenhagen [2]): 33.3 µg/mL (≈ 128 µM)
- Cytotoxicity TC50 LLC-MK2 (LLC-MK2 cells; rhesus monkey): >100 µg/mL
- Therapeutic index (TI) VAR-BSH LLC-MK2 [3]: 18.2
- IC50 [3]: 5.5 µg/mL (≈ 21.1 µM)
- Therapeutic index (TI) CPX LLC-MK2 (CPX Brighton [4]): 9.1
- IC50 (CPX Brighton [4]): 11 µg/mL (≈ 42.3 µM)
- Therapeutic index (TI) CPX Vero (CPX Brighton [5]): 2.6
- IC50 (CPX Brighton [5]): 34.6 µg/mL (≈ 133 µM)
- Therapeutic index (TI) MPX LLC-MK2 [6]: 19.2
- IC50 [6]: 5.2 µg/mL (≈ 20 µM)
- Therapeutic index (TI) VAR-BSH Vero [7]: 4.0
- IC50 [7]: 22.6 µg/mL (≈ 86.8 µM)
- Therapeutic index (TI) VAR-YAM Vero [8]: 4.2
- IC50 [8]: 21.4 µg/mL (≈ 82.2 µM)
- IC50 ([1]; LLC-MK2, read-out: mean IC50 on LLC-MK2 cells): 10.8 ± 4.6 µg/mL (≈ 41.5 µM)
- IC50 ([1]; Vero, read-out: mean IC50 on Vero cells): 36.4 ± 12.9 µg/mL (≈ 140 µM)
- Cytotoxicity TC50 Vero (Vero cells; African green monkey): 90.0 µg/mL
- Therapeutic index (TI) VAC Vero (VAC Copenhagen [9]): 1.0
- IC50 (VAC Copenhagen [9]): > 100 µg/mL
- Therapeutic index (TI) VAR-YAM LLC-MK2 [10]: 25.6
- IC50 [10]: 3.9 µg/mL (≈ 15 µM)
- Therapeutic index (TI) MPX Vero [11]: 4.5
- IC50 [11]: 20 µg/mL (≈ 76.8 µM)
- Therapeutic index (TI) VAR-GAR Vero [12]: 4.5
- IC50 [12]: 19.8 µg/mL (≈ 76.1 µM)
- Therapeutic index (TI) VAR-GAR LLC-MK2 [13]: 16.4
- IC50 [13]: 6.1 µg/mL (≈ 23.4 µM)

SMILES: CC(C)(C)NC(=O)[C@@H]1C[C@@H]2CCCC[C@@H]2CN1C[C@@H](O)[C@H](Cc1ccccc1)NC(=O)[C@H](CC(N)=O)NC(=O)c1ccc2ccccc2n1 [saquinavir, Saquinavir]
- inhibitory activity against the orthopoxviruses tested (in words) [1]: inactive

SMILES: Nc1ncnc2c1ncn2C[C@@H](CO)OCP(=O)(O)O [HPMPA, (S)-9-(3-hydroxy-2-phosphonylmethoxypropyl)adenine]
- IC50 VAC LLC-MK2 (VAC Copenhagen [2]): 8.0 µg/mL (≈ 26.4 µM)
- Therapeutic index (TI) VAC LLC-MK2 (VAC Copenhagen [2]): 12.5
- Cytotoxicity TC50 LLC-MK2 (LLC-MK2 cells): >100 µg/mL
- IC50 VAR-BSH LLC-MK2 [3]: 6.1 µg/mL (≈ 20.1 µM)
- Therapeutic index (TI) VAR-BSH LLC-MK2 [3]: 16.4
- IC50 CPX LLC-MK2 (CPX Brighton [4]): 7.7 µg/mL (≈ 25.4 µM)
- Therapeutic index (TI) CPX LLC-MK2 (CPX Brighton [4]): 13.0
- IC50 CPX Vero (CPX Brighton [5]): 8.4 µg/mL (≈ 27.7 µM)
- Therapeutic index (TI) CPX Vero (CPX Brighton [5]): 11.9
- IC50 MPX LLC-MK2 [6]: 9.2 µg/mL (≈ 30.3 µM)
- Therapeutic index (TI) MPX LLC-MK2 [6]: 10.9
- IC50 VAR-BSH Vero [7]: 12.6 µg/mL (≈ 41.6 µM)
- Therapeutic index (TI) VAR-BSH Vero [7]: 7.9
- IC50 VAR-YAM Vero [8]: 11.4 µg/mL (≈ 37.6 µM)
- Therapeutic index (TI) VAR-YAM Vero [8]: 8.8
- TI against the panel of viruses [1]: 11.9
- mean IC50 against the panel of viruses [1]: 8.4 ± 0.67 µg/mL
- Cytotoxicity TC50 Vero (Vero cells): >100 µg/mL
- IC50 VAC Vero (VAC Copenhagen [9]): 8.1 µg/mL (≈ 26.7 µM)
- Therapeutic index (TI) VAC Vero (VAC Copenhagen [9]): 12.3
- IC50 VAR-YAM LLC-MK2 [10]: 6.8 µg/mL (≈ 22.4 µM)
- Therapeutic index (TI) VAR-YAM LLC-MK2 [10]: 14.7
- IC50 MPX Vero [11]: 10.9 µg/mL (≈ 35.9 µM)
- Therapeutic index (TI) MPX Vero [11]: 9.2
- IC50 VAR-GAR Vero [12]: 6.6 µg/mL (≈ 21.8 µM)
- Therapeutic index (TI) VAR-GAR Vero [12]: 15.2
- IC50 VAR-GAR LLC-MK2 [13]: 4.6 µg/mL (≈ 15.2 µM)
- Therapeutic index (TI) VAR-GAR LLC-MK2 [13]: 21.7
- inhibition of VAC replication in vitro (VAC): inhibit VAC replication in vitro

SMILES: Cc1c(O)cccc1C(=O)N[C@@H](CSc1ccccc1)[C@H](O)CN1C[C@H]2CCCC[C@H]2C[C@H]1C(=O)NC(C)(C)C [nelfinavir, Nelfinavir]
- inhibitory activity against the orthopoxviruses tested (in words) [1]: inactive

SMILES: Nc1nc(=O)c2ncn([C@@H]3C[C@H](CO)[C@H]3CO)c2[nH]1 [lobucavir, [1R(1α,2β,3α)]-9-[2,3-bis(hydroxymethyl)cyclobutyl]guanine]
- inhibitory activity against the orthopoxviruses tested (in words) [1]: No other test compounds of this group (acyclovir, brovavir, lobucavir, didanosine, ddC, or d4C) showed any activity; also recorded: failed to inhibit orthopoxvirus replication

SMILES: Nc1nc2c(ncn2COCCO)c(=O)[nH]1 [acyclovir, Acyclovir]
- inhibitory activity against the orthopoxviruses tested (in words) [1]: No other test compounds of this group (acyclovir, brovavir, lobucavir, didanosine, ddC, or d4C) showed any activity; also recorded: failed to inhibit orthopoxvirus replication

SMILES: Cc1cn([C@H]2C=C[C@@H](CO)O2)c(=O)[nH]c1=O [stavudine]
- inhibitory activity against the orthopoxviruses tested (in words) [1]: inactive

SMILES: CC(C)c1nc(CN(C)C(=O)N[C@H](C(=O)N[C@@H](Cc2ccccc2)C[C@H](O)[C@H](Cc2ccccc2)NC(=O)OCc2cncs2)C(C)C)cs1 [ritonavir, Ritonavir]
- inhibitory activity against the orthopoxviruses tested (in words) [1]: inactive

SMILES: NC(=O)NO [Hydroxyurea, hydroxyurea]
- inhibitory activity against the orthopoxviruses tested (in words) [1]: inactive

SMILES: O=C1Nc2ccc(Cl)cc2[C@@](C#CC2CC2)(C(F)(F)F)O1 [efavirenz]
- inhibitory activity against the orthopoxviruses tested (in words) [1]: inactive

SMILES: Cc1cn([C@H]2C[C@H](N=[N+]=[N-])[C@@H](CO)O2)c(=O)[nH]c1=O [zidovudine]
- inhibitory activity against the orthopoxviruses tested (in words) [1]: inactive

SMILES: O=c1[nH]cnc2c1ncn2[C@H]1CC[C@@H](CO)O1 [didanosine]
- inhibitory activity against the orthopoxviruses tested (in words) [1]: No other test compounds of this group (acyclovir, brovavir, lobucavir, didanosine, ddC, or d4C) showed any activity

SMILES: CN1C(=O)/C(=N\NC(N)=S)c2ccccc21 [Methisazone, methisazone]
- Therapeutic index (TI) VAC LLC-MK2 (VAC Copenhagen [2]): 1.9
- IC50 (VAC Copenhagen [2]): 52 µg/mL (≈ 222 µM)
- Cytotoxicity TC50 LLC-MK2 (LLC-MK2 cells; rhesus monkey): >100 µg/mL
- Therapeutic index (TI) VAR-BSH LLC-MK2 [3]: 2.4
- IC50 [3]: 41.2 µg/mL (≈ 176 µM)
- Therapeutic index (TI) CPX LLC-MK2 (CPX Brighton [4]): 2.2
- IC50 (CPX Brighton [4]): 45.2 µg/mL (≈ 193 µM)
- Therapeutic index (TI) CPX Vero (CPX Brighton [5]): 2.0
- IC50 (CPX Brighton [5]): 49.2 µg/mL (≈ 210 µM)
- Therapeutic index (TI) MPX LLC-MK2 [6]: 1.2
- IC50 [6]: 80.4 µg/mL (≈ 343 µM)
- Therapeutic index (TI) VAR-BSH Vero [7]: 3.0
- IC50 [7]: 34.6 µg/mL (≈ 148 µM)
- Therapeutic index (TI) VAR-YAM Vero [8]: 2.6
- IC50 [8]: 39 µg/mL (≈ 166 µM)
- Cytotoxicity TC50 Vero (Vero cells; African green monkey): >100 µg/mL
- Therapeutic index (TI) VAC Vero (VAC Copenhagen [9]): 2.2
- IC50 (VAC Copenhagen [9]): 45.8 µg/mL (≈ 195 µM)
- Therapeutic index (TI) VAR-YAM LLC-MK2 [10]: 2.3
- IC50 [10]: 43.3 µg/mL (≈ 185 µM)
- Therapeutic index (TI) MPX Vero [11]: 1.5
- IC50 [11]: 66.2 µg/mL (≈ 283 µM)
- Therapeutic index (TI) VAR-GAR Vero [12]: 4.6
- IC50 [12]: 21.6 µg/mL (≈ 92.2 µM)
- Therapeutic index (TI) VAR-GAR LLC-MK2 [13]: 2.3
- IC50 [13]: 44.1 µg/mL (≈ 188 µM)

SMILES: Nc1c2ncn([C@@H]3O[C@H](CO)[C@@H](O)[C@H]3O)c2nc[n+]1[O-] [ANO, Adenosine N1-oxide]
- inhibitory activity against the orthopoxviruses tested (in words) [1]: little activity
- inhibition of VAC virus replication in vitro (VAC): inhibits VAC virus replication in vitro
